Records with an inconclusive call do not appear. The source made the active and inactive calls. How the calls were made is not given here.

This data set has as its system S. typhimurium/E. coli reverse mutation, colony counts. Put plainly: Bacterial reverse mutation test (aka Ames test) summary data. A digest of the protocol:
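S. typhimurium his⁻ strains (TA97–TA1538) and E. coli WP2 uvrA pKM101 trp⁻, dosed over a range with or without rat, hamster or mouse liver S9. Preincubated 20 min at 37° C (or plate incorporation), plated in agar, incubated usually two days. Revertant colonies counted against negative controls.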
For `C=C(C)C(=O)OCCC`, the outcome is “inactive; negative”.
The same measure for `CC=NO`: “active; positive”; for `Brc1ccc(Oc2ccc(Br)cc2Br)c(Br)c1`: “inactive; negative”.
Next, `Fc1ccccc1`: “active; positive”; `Clc1cccc(C(Cl)(Cl)Cl)n1`: “active; positive”; `CCCCC(CC)COC(=O)c1ccc(N(C)C)cc1` (stereo not drawn): “inactive; negative”.
Take `Clc1ccc(Cl)c(Cl)c1Cl`: the outcome is “inactive; negative”.
Take `CCNCC`: the outcome is “inactive; negative”.
Next, `CCCCCCOC(=O)c1ccccc1C(=O)OCCCCCC`: “inactive; negative”.
Next, `CS(=O)(=O)c1ccc(O)c(N)c1`: “inactive; negative”.
Consider `CCCC(=O)OCC`, for which the outcome is “inactive; negative”.
Consider `Nc1ccc2cc(S(=O)(=O)O)c(N=Nc3ccc(-c4ccc(N=Nc5c(S(=O)(=O)O)cc6cc(S(=O)(=O)O)cc(N)c6c5O)cc4)cc3)c(O)c2c1`, for which the outcome is “active; positive”.
Next, `C1CCC2OC2C1` (stereo not drawn): “active; positive”; `Nc1ccccc1C(=O)OCC=Cc1ccccc1`: “inactive; negative”; `COc1ccc2c(c1OC)C(=O)O[C@@H]2[C@H]1c2cc3c(cc2CCN1C)OCO3`: “inactive; negative”.
Next, `O=C(/C=C/C=C/c1ccc2c(c1)OCO2)N1CCCCC1`: “inactive; negative”; `CCCC(=O)c1cc(O)c(O)cc1O`: “active; positive”; `CNC(C)Cc1ccccc1` (stereo not drawn): “inactive; negative”.
The same measure for `c1ccc2[nH]c(-c3cscn3)nc2c1`: “active; positive”; for `O=C1OC(=O)c2c(Br)c(Br)c(Br)c(Br)c21`: “inactive; negative”.
Take `CC(CN1c2ccccc2Sc2ccccc21)N(C)C` (stereo not drawn): the outcome was “inactive; negative”.
On to `c1ccsc1`, for which the outcome was “inactive; negative”.
The same measure for `Cc1ccc(C(=O)O)cc1`: “inactive; negative”; for `OCCCBr`: “active; positive”.
The same measure for `CCCCCNCCCCC`: “inactive; negative”; for `Clc1ccc(Cl)c(Cl)c1`: “inactive; negative”; for `O=C(OCC1CO1)c1cccc(C(=O)OCC2CO2)c1` (stereo not drawn): “active; positive”.
As for `c1ccc(SCCSc2ccccc2)cc1`, the outcome is “inactive; negative”.
Take `Nc1nc(N)nc(N)n1`: the outcome is “inactive; negative”.
The same measure for `CC(C)[C@]12CC(=O)[C@H](C)[C@H]1C2`: “inactive; negative”; for `Cc1cc2nc(N)sc2cc1C`: “active; positive”.
The same measure for `Cc1cc(-c2ccc(N=Nc3ccc4c(S(=O)(=O)O)cc(S(=O)(=O)O)c(N)c4c3O)c(C)c2)ccc1N=Nc1ccc2c(S(=O)(=O)O)cc(S(=O)(=O)O)c(N)c2c1O`: “active; positive”.
Next, `ClC1(Cl)C2(Cl)C3(Cl)C4(Cl)C(Cl)(Cl)C5(Cl)C3(Cl)C1(Cl)C5(Cl)C24Cl` (stereo not drawn): “inactive; negative”; `CC(=O)OCc1ccc2c(c1)OCO2`: “inactive; negative”; `CC1CCC(CO)CC1` (stereo not drawn): “inactive; negative”.
Regarding `CC[C@H](CC[C@@H](C)[C@H]1CC[C@H]2[C@@H]3CC=C4C[C@@H](O)CC[C@]4(C)[C@H]3CC[C@]12C)C(C)C`, the outcome is “inactive; negative”.
On to `CC=C1CC2C=CC1C2` (stereo not drawn), for which the outcome is “inactive; negative”.
In the case of `Clc1ccccc1`, the outcome was “inactive; negative”.
Next, `CCCCCCCCCCCCCC(=O)[O-].CCCCCCCCCCCCCC(=O)[O-].[Zn+2]`: “inactive; negative”; `N#CCCl`: “inactive; negative”; `CC[Si](Cl)(Cl)CC`: “inactive; negative”.
On to `ClCCBr`, for which the outcome was “active; positive”.
Next, `O=C(O)c1cc(Cl)ccc1Cl`: “inactive; negative”; `Clc1ccc(C(c2ccc(Cl)cc2)C(Cl)Cl)cc1`: “inactive; negative”; `[CH3][Pb]([CH3])([CH3])[CH3]`: “inactive; negative”.
Next, `CC(O)COC(C)(C)C` (stereo not drawn): “active; positive”; `CCCCCCCC/C=C\CCCCCCCC(=O)N(CCO)CCO`: “inactive; negative”; `CC(=O)OCCOCCOCCOC(C)=O`: “active; positive”.
Next, `NCCO`: “inactive; negative”; `COc1ccc(N)cc1N`: “active; positive”; `O=[N+]([O-])c1c(O)c(Cl)cc(Cl)c1Cl`: “inactive; negative”.
For `COCCOC(C)=O`, the outcome was “active; weakly positive”.
The same measure for `CC1=C(/C=C/C(C)=C/C=C/C(C)=C/C=C/C=C(C)/C=C/C=C(C)/C=C/C2=C(C)CCCC2(C)C)C(C)(C)CCC1`: “active; positive”; for `CCCCOCCO`: “inactive; negative”; for `NS(=O)(=O)c1cc2c(cc1Cl)NCNS2(=O)=O`: “inactive; negative”.
`ClC=CCCl`: the outcome was “active; positive”.
Next, `C=CCN=C=S`: “active; weakly positive”; `CCCCCCCCCCCCCCCCCC[N+](C)(C)Cc1ccccc1`: “inactive; negative”.
The same measure for `O=c1ccc2ccccc2o1`: “active; positive”; for `Nc1nccs1`: “active; positive”.
For `O=C(O)C=Cc1ccc(C=CC(=O)O)cc1`, the outcome was “inactive; negative”.
Next, `ClCc1ccccn1`: “active; positive”.
Next, `CCNc1cc(O)ccc1C`: “active; positive”.
The same measure for `BrC(Br)C(Br)Br`: “inactive; negative”; for `N#CCBr`: “inactive; negative”.
In the case of `O=[N+]([O-])c1c2ccccc2cc2ccccc12`, the outcome was “active; positive”.
On to `C[C@]12CC[C@@H]3c4ccc(O)cc4CC[C@H]3[C@@H]1CC[C@@H]2O`, for which the outcome is “inactive; negative”.
For `Nc1cccc(Cl)c1`, the outcome was “inactive; negative”.
The same measure for `Cc1ccc(O)c(C)c1`: “active; weakly positive”.
Regarding `CCOP(=O)(OCC)OCC`, the outcome was “inactive; negative”.
The same measure for `CC(N)CN` (stereo not drawn): “inactive; negative”; for `O=c1c(O)c(-c2ccc(O)c(O)c2)oc2cc(O)cc(O)c12`: “active; positive”; for `Cc1ccc(Nc2ccc(Nc3ccc(C)cc3S(=O)(=O)O)c3c2C(=O)c2ccccc2C3=O)c(S(=O)(=O)O)c1`: “active; weakly positive”.
Next, `CN(C)C(=O)Oc1ccc[n+](C)c1`: “inactive; negative”; `O=c1c2ccc3c4c(ccc(c24)c2nc4ccccc4n12)c(=O)n1c2ccccc2nc31`: “active; positive”; `NCCNc1cccc2ccccc12`: “active; positive”.
Next, `Nc1c(Br)cc(Br)c2c1C(=O)c1ccccc1C2=O`: “active; positive”; `CN(C)c1cccc(O)c1`: “active; positive”; `O=[N+]([O-])c1ccc(Cl)c(Cl)c1Cl`: “active; positive”.
For the compound `CCCCOC(=O)c1ccccc1C(=O)OCCCC`, the outcome is “inactive; negative”.
The same measure for `O=S(=O)(O)c1ccc(N=Nc2c(O)ccc3cc(S(=O)(=O)O)ccc23)cc1`: “inactive; negative”; for `Nc1cc(S(=O)(=O)O)cc2cc(S(=O)(=O)O)c(N=Nc3ccc(-c4ccc(N=Nc5c(S(=O)(=O)O)cc6cc(S(=O)(=O)O)cc(N)c6c5O)cc4)cc3)c(O)c12`: “inactive; negative”.
Next, `O=C(O)CC[N+](=O)[O-]`: “active; positive”; `c1ccc(C2CO2)cc1` (stereo not drawn): “active; positive”.
Next, `CC(C)(c1cc(Br)c(OCC(Br)CBr)c(Br)c1)c1cc(Br)c(OCC(Br)CBr)c(Br)c1` (stereo not drawn): “inactive; negative”; `O=C1C=C(O)c2ccccc2C1=O`: “active; positive”.
In the case of `ClC(Cl)=C(Cl)Cl`, the outcome is “inactive; negative”.
Next, `O=CNc1nc(-c2ccc([N+](=O)[O-])o2)cs1`: “active; positive”; `Nc1ccc2ccccc2c1N=Nc1ccc([N+](=O)[O-])cc1`: “active; positive”; `C=C(C#N)C(=O)OCC`: “inactive; negative”.
Take `O=C(NO)c1ccccc1`: the outcome is “active; positive”.
The same measure for `NC1CCC(CC2CCC(N)CC2)CC1` (stereo not drawn): “inactive; negative”; for `O=C(O)CC(C(=O)O)C(CC(=O)O)C(=O)O` (stereo not drawn): “active; positive”.
Next, `COc1ccc(O)cc1`: “inactive; negative”; `O=C1c2ccccc2-c2ccc3c4c(ccc1c24)-c1ccccc1C3=O`: “inactive; negative”; `Nc1ccc(Cl)cc1Cl`: “active; weakly positive”.
Next, `ClCCCl`: “active; positive”.
Turning to `Cc1ccc2ccccc2c1`, the outcome is “inactive; negative”.
For `ClC(Cl)Cl`, the outcome is “inactive; negative”.
Next, `c1ccc2n[nH]nc2c1`: “active; weakly positive”.
Next, `COC[CH2][Hg+]`: “inactive; negative”; `C=CC1CC=CCC1` (stereo not drawn): “inactive; negative”; `Cc1ccc2c(ccc3ccccc32)c1`: “active; positive”.
`Cc1ccc([N+](=O)[O-])c(C)c1`: the outcome was “active; positive”.
The same measure for `CCC(O)CN` (stereo not drawn): “inactive; negative”.
With `OCC(O)CI` (stereo not drawn), the outcome is “active; positive”.
In the case of `CC1=CC[C@H]2C(C)=CC[C@@H](C(C)C)[C@@H]2C1`, the outcome was “inactive; negative”.
Next, `CC(=O)Nc1cccc(N)c1`: “active; positive”.

The values are drawn from PubChem BioAssay AID2202554 (NIEHS Division of Translational Toxicology (DTT)).
